Reference: PMC7619385 (ACS infectious diseases, 2025)

Legend:
[1] = biological target: T1, LmxCLK1 (Leishmania mexicana, UniProt E9AMP2); experiment: Intact mass LC-MS for covalent adduct formation; assay type: binding; conditions: 2 h incubation at room temperature, inhibitor:protein 3:1
T1 sequence (E9AMP2 1-422): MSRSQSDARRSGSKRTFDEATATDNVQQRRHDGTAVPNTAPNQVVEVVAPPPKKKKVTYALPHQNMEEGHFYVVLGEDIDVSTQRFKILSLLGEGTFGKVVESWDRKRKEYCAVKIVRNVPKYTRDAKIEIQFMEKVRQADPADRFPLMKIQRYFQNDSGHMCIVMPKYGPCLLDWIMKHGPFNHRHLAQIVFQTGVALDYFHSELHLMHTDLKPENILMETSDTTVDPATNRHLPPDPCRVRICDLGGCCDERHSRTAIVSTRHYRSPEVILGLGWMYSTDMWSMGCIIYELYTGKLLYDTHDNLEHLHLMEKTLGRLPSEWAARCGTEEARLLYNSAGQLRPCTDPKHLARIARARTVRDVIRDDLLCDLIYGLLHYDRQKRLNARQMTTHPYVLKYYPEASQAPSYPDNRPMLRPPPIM
Protocol: Samples were analyzed by LC-ESI-MS in a XEVO G2 Sx Q-ToF (Waters) at LACTAD-UNICAMP, Brazil. […]
where background is the background fluorescence obtained in the absence of enzyme (blank).
To determine IC50 values, the background-corrected HTRF ratio was plotted as a function of test compound concentration, and the data were fitted to the sigmoidal dose-response (variable slope) equation [2] available in GraphPad Prism (v. 9.1.0):
Signal ratio (665/620) = Plateau + Plateau)(* − Plateau’())($ [2] […]
where Hill = Hill slope describing the steepness of the curve and x = test compound concentration.
To obtain normalized enzymatic activity we used the background corrected HTRF ratio of enzymatic […]
and 0% enzyme activity, respectively.
To establish the contribution of compound pre-incubation to the IC50 assay, we pre-incubated WZ8040 with LmxCLK1 for 5, 10, 15 and 30 minutes at room temperature, prior to starting the phosphorylation reaction by adding ATP and the peptide substrate. The enzymatic reactions were carried following the procedures described above.
For fitting of kinact and KI values from endpoint pre-incubation IC50 data, we used the equation [3], first described by Krippendorff and colleagues:7 […]
IC"&(t) = k. […]
(CQMED clone ID LmxCLK1-cb001) and the two covalent inhibitors WZ8040 and WZ3146. […] Samples were analyzed by LC-ESI-MS in a XEVO G2 Sx Q-ToF (Waters) at LACTAD-UNICAMP, Brazil. […]

[2] = biological target: NLuc::LmxCLK1 (Leishmania mexicana, UniProt E9AMP2); experiment: In-cell BRET target engagement in intracellular amastigotes expressing NLuc::LmxCLK1; assay type: cell-based
Protocol: L. mexicana (strain MNYC/BZ/62/M379) promastigotes were cultivated in medium 199 (M199) (Earle’s Salts - Gibco) supplemented with 10% (v/v) heat-inactivated fetal calf serum (HIFCS – Cultilab) and 1% Penicillin/Streptomycin solution (Sigma-Aldrich) at 26 °C. Phenotypic drug response assays in null mutant and point-mutation mutant lines were performed in HOMEM supplemented with 10% (v/v) heat-inactivated fetal calf serum (HIFCS – Gibco). THP-1 monocytes were differentiated in adherent macrophages with 50 ng of PMA for 72 h at 37 °C and 5% CO2 before infection with stationary phase promastigotes (ratio 10 promastigotes:1 macrophage) for 6 h, followed by washing to remove non-internalized Leishmania. Infected macrophages were incubated at 34 °C and 5% CO2 for 48 h in RPMI (Gibco) supplemented with 10% HIFCS and 1% Penicillin/Streptomycin solution.
in vitro BRET used purified NLuc-LmxCLK1 in Kinase Buffer (50 mM HEPES, 1 mM EGTA, 10 mM MgCl^2, 2 mM DTT and 0.01% Tween-20) aliquoted into 96-well plates (Greiner #655904). In cell BRET assays used engineered L. mexicana (promastigotes or intramacrophage amastigotes) expressing NLuc-LmxCLK1 in cell media aliquoted into 96-well plates (Greiner, #655083). For tracer titration experiments, BRET probes were serially diluted from 100% DMSO stocks – first in 100% DMSO to 100x final assay concentration, and then in Tracer Dilution Buffer (TDB - 12.5 mM HEPES, pH 7.5; 31.25% PEG 400) to 20x the final assay concentration. Serially diluted probes (5 µL) were added to 85 µL of cells in culture media or 85 µL of purified protein. Final well volumes were adjusted to 100 µL with sterile Opti-MEM™ I Reduced Serum Medium (Thermo-Scientific) – for wells containing cells; or Kinase Buffer - for wells containing purified protein. For tracer displacement assays, samples were prepared as above, but final volume was brought to 100 µL by addition of vehicle or serially-diluted test compounds. Final DMSO concentration in these assays was 1%. Plates were incubated for 30 min at 25 °C (purified protein and promastigotes) or 34 °C (intramacrophage amastigotes), and 50 µL of Promega cocktail containing furimazine and NLuc extracellular inhibitor (catalog #N2161) were added to each well. Light emissions at 460+10 nm (BRET donor) and at 610+20 nm (BRET acceptor) were sequentially recorded (integration time = 0.5 s, gain = 3600) using a luminometer (BMG LABTECH Clariostar or Biotek Synergy HT). BRET values are reported in milli-BRET (mBRET) units (mBU), obtained by dividing the acceptor luminescence by the donor luminescence and multiplying the result by a factor of 1,000. BRET values were converted to blank-corrected probe occupancies (%) according to equation [1]: (1) Probeoccupancy(%)=X−Z/Y−Z×100 where X = mBRET value in the presence of the test compound and the probe, Y = mBRET value in the presence of probe only, and Z = mBRET value in the absence of probe and test compound.

| SMILES | Covalent adduct formation with purified LmxCLK1 [1] | IC50 [2] [µM] | Lower potency in intracellular amastigotes ([2]; tracer displacement, versus promastigotes) |
| --- | --- | --- | --- |
| C=CC(=O)Nc1cccc(Oc2nc(Nc3ccc(N4CCN(C)CC4)cc3)ncc2Cl)c1 [WZ3146] | formation of covalent adducts | – | – |
| Cc1ccc(C(=O)Nc2ccc(CN3CCN(C)CC3)c(C(F)(F)F)c2)cc1C#Cc1cnc2[nH]ncc2c1 [GZD824] | – | 13 | ~ 3 fold |
| C=CC(=O)Nc1cccc(Sc2nc(Nc3ccc(N4CCN(C)CC4)cc3)ncc2Cl)c1 [WZ8040] | formation of covalent adducts | 7 | – |
